Measured values as given in PubChem BioAssay AID860 (Vanderbilt High Throughput Screening Facility, 2007).

molecular target: Muscarinic acetylcholine receptor M4 (Rattus norvegicus) (UniProt P08485); experiment: antagonism at rat M4 muscarinic receptor, dose response, counter-screen for M1 allosteric modulator project, cell-based, antagonist mode (AID 860); conditions: rat M4-expressing cells, calcium fluorescence, antagonist mode at EC80 agonist
Sequence (P08485 whole entry, looked up): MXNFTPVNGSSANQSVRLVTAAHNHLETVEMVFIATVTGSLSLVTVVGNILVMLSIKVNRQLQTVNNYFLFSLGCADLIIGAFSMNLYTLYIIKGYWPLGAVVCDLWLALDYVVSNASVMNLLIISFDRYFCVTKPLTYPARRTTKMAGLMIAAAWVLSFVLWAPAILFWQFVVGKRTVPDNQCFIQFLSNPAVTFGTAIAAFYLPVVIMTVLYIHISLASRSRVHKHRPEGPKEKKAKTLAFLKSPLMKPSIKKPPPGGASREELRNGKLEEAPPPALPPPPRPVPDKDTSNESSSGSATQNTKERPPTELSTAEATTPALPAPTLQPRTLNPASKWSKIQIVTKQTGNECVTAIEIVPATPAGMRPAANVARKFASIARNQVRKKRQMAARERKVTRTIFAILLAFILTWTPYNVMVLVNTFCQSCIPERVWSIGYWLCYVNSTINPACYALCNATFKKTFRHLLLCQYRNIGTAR

| SMILES | IC50 |
| --- | --- |
| CCN(CC)c1ccc(C2C(C(=O)OCCOC(C)C)=C(C)NC3=C2C(=O)CCC3)cc1 (centres undefined) | 822 nM |
| CN(C)CCC=C1c2ccccc2CCc2ccccc21 | 1150 nM |
| CCN1C(=O)/C(=C\N2CCCCCC2)SC1=S | 759 nM |
| O=C(NC1CCN(Cc2ccccc2)CC1)C1COc2ccccc2O1 (centres undefined) | 411 nM |
| CCN(CC)CCOC(=O)C(c1ccccc1)c1ccccc1 | 747 nM |
| COC(=O)c1ccc(CSc2nc(C)nc3c2c(=O)n(C)c(=O)n3C)o1 | 1300 nM |
| O=C(CN1CCCC(O)C1)N1c2ccccc2Sc2ccc(C(F)(F)F)cc21 (centres undefined) | 979 nM |
| CCN(CCCCOC(=O)c1ccc(OC)c(OC)c1)C(C)Cc1ccc(OC)cc1 (centres undefined) | 742 nM |
| CNCCCC1c2ccccc2C=Cc2ccccc21 | 925 nM |
| O=C(CC(c1ccccc1O)N1CCCCC1)N1CCCCC1 (centres undefined) | 752 nM |
| COc1ccc(N2C(=O)CSC23C(=O)N2CCCc4cccc3c42)cc1 (centres undefined) | 451 nM |
| CCC(C)N(CCNC(=O)CC1Oc2ccc(C)cc2NC1=O)C1CCCCC1 (centres undefined) | 577 nM |
| CCC(C)N(CCNC(=O)CC1Oc2ccccc2NC1=O)C1CCCCC1 (centres undefined) | 847 nM |

Now those with a lower IC50, led by results:

| IC50 | SMILES |
| --- | --- |
| 325 nM | O=C(OCCN1CCCC1)C1(c2ccccc2)CCCC1 |
| 11.7 nM | CN(C)CCOC(=O)C(c1ccccc1)C1(O)CCCC1 (centres undefined) |
| 29.4 nM | CCCC(CCC)C(=O)OC1C[C@H]2CC[C@@H](C1)[N+]2(C)C (some centres undefined) |
| 34.3 nM | OC(CCN1CCCC1)(c1ccccc1)C1CCCCC1 (centres undefined) |
| 215 nM | CN(C)CCCOC(=O)C1c2ccccc2Oc2ccccc21 |
| 111 nM | OC(CCN1CCCCC1)(c1ccccc1)c1ccccc1 |
| 136 nM | CN1CCC(=C2c3ccccc3C=Cc3ccccc32)CC1 |
| 33.1 nM | CC1CCN(Cc2ccc(NC(=O)CC3Oc4ccccc4NC3=O)cc2)CC1 (centres undefined) |
| 71.6 nM | Cc1ccc2c(c1)NC(=O)C(CC(=O)Nc1ccc(CN3CCC(C)CC3)cc1)O2 (centres undefined) |
| 38.3 nM | Cc1nc2c(o1)CCc1ccccc1C2N1CCN(C)CC1 (centres undefined) |
| 72.7 nM | Cc1ccc(C(=O)C2CCN(CC(=O)NC3CCCCC3)CC2)cc1 |
